Literature values in US20070218033A1, “Composition and method of treating hepatitis C” (priority 1991, published 2007).
Read-outs that look alike come from different tables or passages of the source. Where no end group is shown, it is not given here.

Columns and labels:
[1] = test system: Woodchuck Hepatitis Virus; conditions: woodchuck infected with Woodchuck Hepatitis Virus
[2] = test system: nonsmall cell lung cancer
[3] = test system: response to influenze vaccine; conditions: subcutaneously twice weekly
[4] = test system: natural killer-cell activity; conditions: THNα1 and interferon together; immunosuppressed mice
hepatitis B virus (HBV) = conditions: treated for a year
chronic NANB hepatitis = conditions: for proportion of patients with normal ALT levels at week 48: after treatment
[5] = test system: chronic hepatitis C (NANB hepatitis)
[6] = test system: post-transfusion NANB hepatitis
HCV-related diseases = conditions: in vivo
[7] = 900 μgrams/m^2 subcutaneously after radiotherapy

For “THNα1: 28 amino acidic polypeptide, molecular weight 3100, initially isolated from TF-5, sequenced and chemically synthesized (SDAAVDTSSEITTKDLKEKKEVVEEAEN; not fully specified; ends and bridges not checked; UniProt P06454 2-29, looked up)”, the “viral DNA replication” value [1] is listed as “suppressed”, the T-cell numbers [2, 7] is listed as “no increase” and the radiation-suppressed immune function [2, 7] is listed as “some restoration”. The “relapse-free survival and overall survival versus placebo group” value ([2]; 900 μgrams/m^2 subcutaneously twice weekly, or daily for two weeks then twice weekly, both treatment groups) was “greater”, the “clinical or biochemical toxicity” value ([3]; drug recipients) was “No clinical or biochemical toxicity” and the “levels of antibody to influenza versus controls” value ([3]; six weeks post-vaccine) was “higher levels”. For the same molecule, the “effect on natural killer-cell activity” value [4] was “synergistic effect”, the “patients with reduced levels of serum HBV DNA” value (hepatitis B virus (HBV); pooled THNα1 (5) and TF-5 (2) patients) was 6 of the 7 and the “patients initially positive for serum HBsAg who subsequently cleared this antigen” value (hepatitis B virus (HBV); pooled THNα1 and TF-5 patients) was 5 of 6.

For α-interferon, the “proportion of patients with normal ALT levels at 24 weeks” value (chronic NANB hepatitis; 1 MU group) is given as 45%, the “proportion of patients with normal ALT levels at week 48” value (chronic NANB hepatitis; 1 MU group) is given as 20% and the “mean serum ALT levels during the 24 week treatment period” value (chronic NANB hepatitis; 1 MU three times a week) is given as “decreased”. For the same molecule, the “proportion of patients with normal ALT levels at 24 weeks” value (chronic NANB hepatitis; 3 MU group) was 39%, the “proportion of patients with normal ALT levels at week 48” value (chronic NANB hepatitis; 3 MU group) was 28% and the “decrease of mean serum ALT levels during the 24 week treatment period” value (chronic NANB hepatitis; 3 MU three times a week) was “statistically significant”. The “relapse in disease activity among responders when interferon was stopped” value (chronic NANB hepatitis; fraction of the responders) was “approximately half”, the “severity of histological changes in repeat liver biopsy specimens” value (chronic NANB hepatitis; higher dose group (3 MU)) was “significant decrease” and the “severity of histological changes in repeat liver biopsy specimens” value (chronic NANB hepatitis; lower dose group (1 MU)) was “not in the lower dose group”. For the same molecule, the “relapse within six months after the completion of treatment” value ([5]; 1 MU) was 44%, the “responded to treatment (serum ALT)” value ([5]; 1 MU three times weekly for 24 weeks, nine of sixteen patients) was 56% and the “relapse within six months after the completion of treatment” value ([5]; 3 MU) was 51%. For the same molecule, the “liver histology (regression of lobular and periportal inflammation)” value ([5]; 3 MU three times weekly for 24 weeks) was “histologic improvement”, the “serum ALT level became completely normal” value ([5]; 3 MU three times weekly for 24 weeks, 22 of the 26 patients who responded) was 85% and the side effects ([6]; 1 MU/day) was “virtually absent”. For the same molecule, the “patients who improved their serum alanine transaminase (ALT) levels within one month of starting therapy” value ([6]; 5 MU daily in seven patients, 1 MU daily in three patients, ten patients) was “eight of ten”, the side effects ([6]; 5 MU/day dose) was “common” and the “degree of portal inflammation and loss of parenchymal hepatocytic necrosis in post-treatment liver biopsies” value ([6]; three patients with post-treatment liver biopsies) was “marked improvement”. The “mean serum ALT and histological features of the liver” value (chronic HCV infection; 2 MU subcutaneously three times weekly for six months, 21 patients) was “improved significantly”, the “other patients with a decrease in mean ALT of more than 50%” value (chronic HCV infection; 2 MU subcutaneously three times weekly for six months, number of patients) was “three” and the “complete response (decline in mean serum ALT to the normal range during therapy)” value (chronic HCV infection; 2 MU subcutaneously three times weekly for six months, ten of 21 patients) was 48%. For the same molecule, the “patients still with normal ALT values six to twelve months after discontinuation of therapy” value (chronic HCV infection; 2 MU three times weekly for six months, two patients) was 10%.

In the case of Nc1nc2c(ncn2COCCO)c(=O)[nH]1 [acyclovir], the “effectiveness in HCV-related diseases” value (HCV-related diseases) is listed as “ineffective”.
